Positions of bridges follow the written chain, without caps; N, C: chain ends. Non-standard residues stand in square brackets, D forms with d. No end group written: not given here.
Experiments:
S. aureus MN8 biofilms = assay: ThT fluorescence assay of amyloid formation in S. aureus MN8 biofilm cultures; format: cell-based, Staphylococcus aureus; conditions: for Effect on amyloid fibril formation in S. aureus biofilms (ThT fluorescence, FIG. 1B): MN8 and SH1000 WT strains, particularly MN8; for Effect on amyloid fibril formation in S. aureus biofilms (ThT fluorescence, FIG. 1B) / Reduction of amyloid fibril formation (ThT fluorescence): 24 h, 37° C.; for Reduction of amyloid fibril formation (ThT fluorescence): S. aureus MN8 biofilm, peptide 80 μM unless otherwise noted, vs peptide-free control
Procedure: We developed a novel protocol to identify amyloid fibril formation during biofilm development in two S. aureus strains—SH1000 WT, a rsbU^+ laboratory strain^27, and MN8, a clinical strain isolated from the human urogenital tract (Table 1). After 24 hours of batch growth in microtiter plates, biofilms were washed and incubated with Thioflavin T (ThT), and the resulting fluorescence signals served as a proxy for the extent of PSM fibril formation in the EM (FIG. 1A). Next, we utilized this assay to test α-sheet amyloid inhibitor designs and control peptides (sequences provided in Table 2) in batch biofilm cultures. The first inhibitor used is AP90 (Alternating Peptide #90, referred to as α1 previously^25,26). […] The AP401 and AP407 designs display similar spectral features by CD, except that AP401 has a positive signal in the random coil region (FIG. 7). AP401 has the same sequence as AP90 but with reversed chirality in the strands and turn, thus the D-amino acids give rise to an approximate mirror image CD spectrum relative to AP90. AP407 is a variant of AP90 with a disulfide bond. An unstructured random coil peptide (RC) and a β-hairpin (β) are used as structural controls.
Designed and control peptides were added to the growth medium prior to inoculation, and biofilms were allowed to grow for 24 hours at 37° C. Planktonic cells were removed and the remaining biofilms were assayed for amyloid content using ThT. […] The disulfide-linked peptide design, AP407, reduced the amyloid fibril formation by 46% and 56% in the MN8 and SH1000 WT strains, respectively. In contrast, the random coil and β-sheet control peptides were ineffective.
Overnight cultures of S. aureus (see Table 1 for a list of strains used in this study) were spun down and re-suspended in fresh Luria-Bertani (LB) media to an optical density of 0.1 (600 nm). These cultures were then mixed with reconstituted peptide (or water, in the case of controls) and aliquoted in quadruplicate into wells of a clear 48-well plate (Corning, TC-treated polystyrene). The final concentration of peptide in each well was 80 μM, unless otherwise noted. Plates were covered and biofilms were grown at 37° C. for 24 hours with gentle rocking. At this time, medium and planktonic cells were removed from wells using a vacuum and the remaining adherent biofilms were rinsed once with PBS (BupH™, Thermo Scientific). Thioflavin T (ThT), an established fluorescent label for amyloid fibrils^40, was then added to each well at a concentration of 22 μM and biofilms were incubated statically for 4 hours at room temperature. The solution was then removed from the wells and PBS was added with vigorous pipetting to detach biofilms from the plate surface. Plates were shaken at high speed for 1 minute on a plate shaker to detach any remaining biofilm material and homogenize the samples. The detached biofilm suspensions were transferred to a 96-well black-walled plate (Corning, TC-treated polystyrene) and ThT fluorescence was read at 438/495 nm on a Perkin-Elmer Enspire™ plate reader. Fluorescence measurements were corrected by subtracting the background intensity of identical samples without ThT. For calculation of live:dead cell ratios, biofilm suspensions were prepared as described above and cells were stained with a 1:1 mixture of Syto9 and propidium iodide (LIVE/DEAD BacLight™ Bacterial Viability Kit, Thermo Scientific). After 15 minutes of incubation at room temperature, fluorescence ratios of the two dyes were determined using a Perkin-Elmer Enspire™ plate reader.

[1] = test system: P. aeruginosa PAO1 pFap biofilms; assay: In situ ThT assay of Fap amyloid in P. aeruginosa biofilms; format: cell-based; conditions: LB medium, 37° C., 48 h
From the text: FIG. 15. Action of synthetic α-sheet peptides in the P. aeruginosa system. […] Error bars indicate standard deviation of the mean of at least three replicates. Significance values are p<0.05: *, p<0.01: **, p<0.001: ***.
The strain used in these experiments is a fap-overexpressing mutant of P. aeruginosa PAO1 WT called PAO1 pFap. The overexpression is generated by cloning the entire fap operon into a host expression vector, which is then transformed into PAO1 WT. […] For in situ assays, overnight cultures from a single colony of freshly transformed PAO1 pFap were used to inoculate 96 well plates in the presence of synthetic α-sheet peptides in LB medium. As a control, biofilms of the deletion strain PAO1 Δfap were grown under the same conditions. Plates were covered and incubated at 37° C. for 48 h. After incubation, planktonic cells and media were gently removed from the biofilms by pipetting. The biofilms were rinsed once with PBS prior to staining with 20 μM ThT. Stained biofilms were resuspended by pipetting and sonication, and the fluorescence of ThT was measured at 448/485 nm in a plate reader.

S. mutans UA159 biofilms = assay: ThT assay for S. mutans biofilms (plate); format: cell-based, Streptococcus mutans; conditions: 28 h, vs control
From the text: (§1) FIG. 16. Synthetic α-sheet peptides as a novel anti-biofilm agent for the dental pathogen, S. mutans. A) ThT fluorescence of S. mutans biofilms decreases upon addition of synthetic α-sheet peptides AP193, AP407, and AP90. […] D) synthetic α-sheet peptides added to S. mutans grown on hydroxyapatite ceramic particles led to significant decreases in ThT fluorescence.
The peptides AP90, AP407, AP193, P411, and P1 were screened for their ability to inhibit amyloid fibril formation using an optimized ThT assay for S. mutans biofilms. Briefly, S. mutans UA159 overnight cultures were diluted in BHI medium with 30 mM sucrose and 1% (v/v) EC Oxyrase(R) to ensure an oxygen-limited environment. Inocula were then mixed with inhibitors in water, or only water for blank conditions. Biofilms were cultivated at 37° C. in 96 well plates. After 28 h, planktonic cells and media were aspirated. Biofilms were rinsed once with PBS and then resuspended in a solution of 22 μM ThT in PBS. Stained biofilm suspensions were transferred to a new microtiter plate and their fluorescence was measured in a plate reader.
Several synthetic peptides caused significant suppression in the amyloid content of S. mutans biofilms, and the effect was specific to those with α-sheet structure. AP193 at 40 μM decreased ThT fluorescence by 33% (p=0.007). […] AP90 caused a 16% decrease in ThT fluorescence at 85 μM (p=0.017).

PSMα1 = test system: PSMα1
From the text: FIG. 6. […] Error bars represent the standard error of the mean.

SA = assay: Crystal violet biofilm assay; format: cell-based, Staphylococcus aureus
From the text: Furthermore, these same inhibitors are active against EC, SE, and SM.

[2] = test system: S. mutans biofilms on hydroxyapatite; assay: ThT assay of S. mutans biofilms grown on ceramic-hydroxyapatite particles; format: cell-based, Streptococcus mutans; conditions: 24 h
Procedure: as §1
To assess peptide inhibition of amyloid fibrils in S. mutans adhered to tooth-like surfaces, biofilms were grown on ceramic-hydroxyapatite particles. Hydroxyapatite is the primary mineral present in the structure of a tooth, so this assay is a more physiologically relevant model of S. mutans accumulation. ThT fluorescence of adhered biofilms was determined after 24 h of growth. Synthetic α-sheet peptides were added to medium and hydroxyapatite ceramic particles prior to cell growth. […] Both AP193 monomer and dimer caused significant decreases in ThT fluorescence (23% and 63%, respectively; FIG. 16D).

Substance	Effect on amyloid fibril formation in S. aureus biofilms (ThT fluorescence, FIG. 1B) (S. aureus MN8 biofilms)	Reduction of amyloid fibril formation (ThT fluorescence) (S. aureus MN8 biofilms)	Amyloid formation in biofilms (ThT) [1]	Decrease in ThT fluorescence (S. mutans UA159 biofilms; 85 μM)	Fibril formation with increasing peptide concentration (FIG. 1C) (S. aureus MN8 biofilms; S. aureus MN8 biofilms, increasing concentrations in culture medium)	Change of binding affinity as PSMα1 converted to β-sheet (PSMα1; PSMα1 at 146 h vs end of lag phase)	Biofilm inhibition (crystal violet, FIG. 10) (SA)	Decrease in ThT fluorescence ([2]; 100 μM)	Binding of PSMα1 to peptide-functionalized beads (PSMα1; PSMα1 pre-incubated 0, 24, 48 h)	Decrease in ThT fluorescence (S. mutans UA159 biofilms; 40 μM)	Decrease in ThT fluorescence ([2]; concentration not given)
RGEmNlCwMNEYSGWcMnLkMGR (RGE[dM]N[dL]C[dW]MNEYSGW[dC]M[dN]L[dK]MGR; disulfide 7-16 (inferred)) [AP407, variant of AP90 with a disulfide bond]	significant reduction in amyloid fibril formation	46%	significantly inhibit amyloid formation	42%							
RGEmNlSwMNEYSGWtMnLkMGR (RGEMNLSWMNEYSGWTMNLKMGR; not fully specified (residues 4, 6, 8, 16, 18, 20); printed as RGEmNlSwMNEYSGWtMnLkMGR) [AP90]	significant reduction in amyloid fibril formation	47%	significantly inhibit amyloid formation	16%	decreased in a dose-dependent manner	dropped by two orders of magnitude	inhibition	20%			
RGEmNyFwMNEYYGWtMnCkMGR (RGE[dM]N[dY]F[dW]MNEYYGW[dT]M[dN]C[dK]MGR) [AP193, hydrophobic AP90 derivative, variant to support different chemical coupling reactions]			significantly inhibit amyloid formation						preferentially bound α-sheet rich PSMα1 (48 h) over earlier time points	33%	23%

From patent US11033604B2, “Reagents and methods for treating bacterial infection” (priority 2018, dated 2021)
